What was measured:
Assay type in all cases: in vivo
[1] = system: Echinochloa crus-galli (ECHCG); experiment: Pre-emergence herbicidal action against ECHCG
Method in brief: (§1)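 Dosages of 320 g/ha or less; pre-emergence; WP or EC in aqueous spray, 0.5% additive, 600 l/ha; greenhouse; visual % effect after ~3 wk relative to control pots.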

[2] = system: Matricaria inodora (MATIN); experiment: Pre-emergence herbicidal action against MATIN; conditions: dosage 320 g/ha
Method in brief: as §1

[3] = system: Setaria viridis (SETVI); experiment: Pre-emergence herbicidal action against SETVI
Method in brief: as §1

[4] = system: Verconica persica (VERPE); experiment: Post-emergence herbicidal action against VERPE
Method in brief: (§2)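 Post-emergence greenhouse spray, one-leaf stage, 600 l/ha water plus 0.5% additive; WP or EC formulations; application rates 320 g/ha or lower. Visual % damage vs untreated controls at ~3 weeks.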

[5] = system: Lolium rigidum (LOLRI); experiment: Post-emergence herbicidal action against LOLRI
Method in brief: as §2

[6] = system: Matricaria inodora (MATIN); experiment: Post-emergence herbicidal action against MATIN
Description: Seeds of monocotyledonous and dicotyledonous weeds and crop plants are placed in sandy loam in plastic or organic planting pots, covered with soil and cultivated in a greenhouse under controlled growth conditions. 2 to 3 weeks after sowing, the test plants are treated at the one-leaf stage. The compounds of the invention, formulated in the form of wettable powders (WP) or as emulsion concentrates (EC), are then sprayed onto the green parts of the plants as aqueous suspension or emulsion with addition of 0.5% additive at a water application rate of 600 l/ha (converted). After the test plants have been kept in the greenhouse under optimum growth conditions for about 3 weeks, the activity of the preparations is rated visually in comparison to untreated controls. For example, 100% activity=the plants have died, 0% activity=like control plants.
Tables B1 to B13 below show the effects of selected compounds of the general formula (I) according to Table 1 on various harmful plants and at an application rate corresponding to 320 g/ha or lower, which were obtained by the experimental procedure mentioned above. The appendices “a”, “b” and “c” give differentiation by dosage used with otherwise the same harmful plants tested.

[7] = system: Echinochloa crus-galli (ECHCG); experiment: Post-emergence herbicidal action against ECHCG
Method in brief: as §2

[8] = system: Setaria viridis (SETVI); experiment: Post-emergence herbicidal action against SETVI
Method in brief: as §2

[9] = system: Avena fatua (AVEFA); experiment: Post-emergence herbicidal action against AVEFA; conditions: visual rating about 3 weeks after treatment
Method in brief: as §2

[10] = system: Zea mays (ZEAMX); conditions: crop plant compatibility, 80 g/ha, effect vs untreated controls
Method in brief: (§3)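 Foliar application at the one-leaf stage: WP/EC formulation, 0.5% additive, 600 l/ha water. Greenhouse-grown in sandy loam. Endpoint is visual % injury relative to untreated controls at about 3 weeks.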

[11] = system: Viola tricolor (VIOTR); experiment: Pre-emergence herbicidal action against VIOTR
Method in brief: as §1

[12] = system: Alopecurus myosuroides (ALOMY); experiment: Post-emergence herbicidal action against ALOMY; conditions: visual rating about 3 weeks after treatment vs untreated controls (100% = plants have died, 0% = like control plants)
Method in brief: as §2

[13] = system: Avena fatua (AVEFA); experiment: Pre-emergence herbicidal action against AVEFA; conditions: visual scoring after about 3 weeks vs untreated controls
Method in brief: as §1

[14] = system: Polygonum convolvulus (POLCO); experiment: Pre-emergence herbicidal action against POLCO
Method in brief: as §1

[15] = system: Lolium rigidum (LOLRI); experiment: Pre-emergence herbicidal action against LOLRI
Method in brief: as §1

[16] = system: Pharbitis purpurea (PHBPU); experiment: Pre-emergence herbicidal action against PHBPU; conditions: dosage 320 g/ha
Method in brief: as §1

[17] = system: Viola tricolor (VIOTR); experiment: Post-emergence herbicidal action against VIOTR
Method in brief: as §2

[18] = system: Verconica persica (VERPE); experiment: Pre-emergence herbicidal action against VERPE
Method in brief: as §1

[19] = system: Pharbitis purpurea (PHBPU); experiment: Post-emergence herbicidal action against PHBPU
Method in brief: as §2

[20] = system: Alopecurus myosuroides (ALOMY); experiment: Pre-emergence herbicidal action against ALOMY; conditions: scored visually after about 3 weeks, 100% = plants have died
Method in brief: as §1

[21] = system: Amaranthus retroflexus (AMARE); experiment: Pre-emergence herbicidal action against AMARE; conditions: visual scoring after about 3 weeks vs untreated controls
Method in brief: as §1

[22] = system: Oryza sativa (ORYSA); conditions: crop plant compatibility, 80 g/ha, effect in comparison to untreated controls
Method in brief: as §3

[23] = system: Amaranthus retroflexus (AMARE); experiment: Post-emergence herbicidal action against AMARE
Method in brief: as §2

| Structure (SMILES) | Pre-emergence action against ECHCG in % ([1]; dosage 320 g/ha) [%] | Pre-emergence action against MATIN in % [2] [%] | Pre-emergence action against SETVI in % ([3]; dosage 320 g/ha) [%] | Post-emergence action against VERPE in % ([4]; 320 g/ha, VERPE) [%] | Post-emergence action against VERPE in % ([4]; dosage 80 g/ha) [%] | Post-emergence action against LOLRI in % ([5]; dosage 320 g/ha) [%] | Post-emergence action against MATIN in % ([6]; dosage 320 g/ha) [%] | Post-emergence action against ECHCG in % ([7]; dosage 320 g/ha) [%] | Post-emergence action against SETVI in % ([8]; dosage 320 g/ha) [%] | Post-emergence action against AVEFA in % ([9]; 320 g/ha) [%] | Pre-emergence action against VIOTR in % ([11]; 320 g/ha, Viola tricolor) [%] | Post-emergence action against ALOMY in % ([12]; 80 g/ha) [%] | Post-emergence action against ALOMY in % ([12]; 320 g/ha) [%] | Pre-emergence action against AVEFA in % ([13]; 320 g/ha) [%] | Pre-emergence action against POLCO in % ([14]; dosage 320 g/ha) [%] | Pre-emergence action against LOLRI in % ([15]; dosage 320 g/ha) [%] | Pre-emergence action against PHBPU in % [16] [%] | Post-emergence action against VIOTR in % ([17]; 320 g/ha) [%] | Pre-emergence action against VERPE in % ([18]; dosage 320 g/ha) [%] | Post-emergence action against PHBPU in % ([19]; dosage 320 g/ha) [%] | other results |
| --- | --- | --- | --- | --- | --- | --- | --- | --- | --- | --- | --- | --- | --- | --- | --- | --- | --- | --- | --- | --- | --- |
| Cc1cccnc1-n1nc(OCC(=O)O)c(Cl)c1-c1ccc(F)nc1 [Example I-323] | 100 | 100 | 100 | 90 | 90 | 90 | 90 | 90 | 90 | 90 | 100 | 100 | 100 | 100 | 100 | 100 | 90 | 90 | 100 | 80 | Pre-emergence action against ECHCG in % ([1]; dosage 80 g/ha): 90%; Post-emergence action against LOLRI in % ([5]; dosage 80 g/ha): 90%; Post-emergence action against ECHCG in % ([7]; dosage 80 g/ha): 90%; Post-emergence action against AVEFA in % ([9]; 80 g/ha): 90%; Post-emergence action against ZEAMX in % [10]: 0%; Pre-emergence action against VIOTR in % ([11]; dosage 80 g/ha): 100%; Pre-emergence action against AVEFA in % ([13]; 80 g/ha): 90%; Pre-emergence action against LOLRI in % ([15]; dosage 80 g/ha): 100%; Post-emergence action against VIOTR in % ([17]; 80 g/ha): 90%; Pre-emergence action against ALOMY ([20]; 80 g/ha): 100%; Pre-emergence action against ALOMY ([20]; 320 g/ha): 100%; Pre-emergence action against AMARE in % ([21]; 80 g/ha): 100%; Pre-emergence action against AMARE in % ([21]; 320 g/ha): 100% |
| CS(=O)(=O)CCOC(=O)COc1nn(-c2ccccn2)c(-c2ccc(F)nc2)c1Br [Example I-313] | 100 | 90 | 100 | 90 | 90 | 90 | 90 | 90 | 90 | 80 | 90 | 90 | 90 | 90 | 80 | 100 | 80 | 80 | 90 | 90 | Pre-emergence action against SETVI in % ([3]; dosage 80 g/ha): 100%; Post-emergence action against MATIN in % ([6]; dosage 80 g/ha): 80%; Post-emergence action against SETVI in % ([8]; dosage 80 g/ha): 90%; Post-emergence action against ORYSA in % [22]: 10%; Pre-emergence action against POLCO in % ([14]; dosage 80 g/ha): 80%; Pre-emergence action against VERPE in % ([18]; dosage 80 g/ha): 80%; Post-emergence action against PHBPU in % ([19]; dosage 80 g/ha): 90%; Post-emergence action against AMARE in % ([23]; 80 g/ha, visual rating about 3 weeks after treatment vs untreated controls (100% = plants have died, 0% = like control plants)): 80%; Post-emergence action against AMARE in % ([23]; 320 g/ha, visual rating about 3 weeks after treatment): 90%; Pre-emergence action against ALOMY ([20]; 80 g/ha): 90%; Pre-emergence action against ALOMY ([20]; 320 g/ha): 100%; Pre-emergence action against AMARE in % ([21]; 80 g/ha): 90%; Pre-emergence action against AMARE in % ([21]; 320 g/ha): 100% |
| CCOC(=O)COc1nn(-c2ncccc2C)c(-c2ccc(F)nc2)c1Cl [Example I-316] | 100 | 100 | 100 | 90 | 90 | 100 | 90 | 90 | 90 | 100 | 100 | 100 | 100 | 100 | 100 | 100 | 90 | 90 | 100 | 90 | Pre-emergence action against ECHCG in % ([1]; dosage 80 g/ha): 100%; Pre-emergence action against SETVI in % ([3]; dosage 80 g/ha): 100%; Post-emergence action against LOLRI in % ([5]; dosage 80 g/ha): 100%; Post-emergence action against MATIN in % ([6]; dosage 80 g/ha): 80%; Post-emergence action against ECHCG in % ([7]; dosage 80 g/ha): 90%; Post-emergence action against SETVI in % ([8]; dosage 80 g/ha): 90%; Post-emergence action against AVEFA in % ([9]; 80 g/ha): 90%; Post-emergence action against ZEAMX in % [10]: 0%; Pre-emergence action against VIOTR in % ([11]; dosage 80 g/ha): 100%; Pre-emergence action against POLCO in % ([14]; dosage 80 g/ha): 100%; Pre-emergence action against LOLRI in % ([15]; dosage 80 g/ha): 100%; Post-emergence action against VIOTR in % ([17]; 80 g/ha): 90%; Post-emergence action against PHBPU in % ([19]; dosage 80 g/ha): 90%; Pre-emergence action against ALOMY ([20]; 80 g/ha): 90%; Pre-emergence action against ALOMY ([20]; 320 g/ha): 100%; Pre-emergence action against AMARE in % ([21]; 80 g/ha): 100%; Pre-emergence action against AMARE in % ([21]; 320 g/ha): 100% |

Source: patent US20240041042A1, “1-(PYRIDYL)-5-AZINYLPYRAZOLE DERIVATIVES, AND THEIR USE FOR CONTROL OF UNDESIRED PLANT GROWTH” (Bayer Aktiengesellschaft, priority 2020, published 2024)
